Reference: ChEMBL document CHEMBL4665624, “Synthesis of 5-(4-(1H-phenanthro[9,10-d]imidazol-2-yl)benzylidene)thiazolidine-2,4-dione as promising DNA and serum albumin-binding agents and evaluation of antitumor activity” (Eur J Med Chem, 2019)

Experiments:
[1] = system: PC-3; test: Antitumor activity against human PC-3 cells assessed as cell growth inhibition at 10 uM incubated for 48 hrs by sulforhodamine B assay; type: functional; settings: read-out: GI
[2] = system: UACC-62; test: Antitumor activity against human UACC-62 cells assessed as cell growth inhibition at 10 uM incubated for 48 hrs by sulforhodamine B assay; type: functional; settings: read-out: GI
[3] = system: HCT-15; test: Antitumor activity against human HCT15 cells assessed as cell growth inhibition at 10 uM incubated for 48 hrs by sulforhodamine B assay; type: functional; settings: read-out: GI
[4] = system: OVCAR-4; test: Antitumor activity against human OVCAR-4 cells assessed as cell growth inhibition at 10 uM incubated for 48 hrs by sulforhodamine B assay; type: functional; settings: read-out: GI
[5] = system: Hs-578T; test: Antitumor activity against human HS 578T cells assessed as cell growth inhibition at 10 uM incubated for 48 hrs by sulforhodamine B assay; type: functional; settings: read-out: GI
[6] = system: NCI-H226; test: Antitumor activity against human NCI-H226 assessed as cell growth inhibition at 10 uM incubated for 48 hrs by sulforhodamine B assay; type: functional; settings: read-out: GI
[7] = system: NCI/ADR-RES; test: Antitumor activity against human NCI/ADR-RES cells assessed as cell growth inhibition at 10 uM incubated for 48 hrs by sulforhodamine B assay; type: functional; settings: read-out: GI
[8] = system: RXF 393; test: Antitumor activity against human RXF 393 cells assessed as cell growth inhibition at 10 uM incubated for 48 hrs by sulforhodamine B assay; type: functional; settings: read-out: GI
[9] = system: SK-MEL-28; test: Antitumor activity against human SK-MEL-28 cells assessed as cell growth inhibition at 10 uM incubated for 48 hrs by sulforhodamine B assay; type: functional; settings: read-out: GI
[10] = system: OVCAR-3; test: Antitumor activity against human OVCAR-3 cells assessed as cell growth inhibition at 10 uM incubated for 48 hrs by sulforhodamine B assay; type: functional; settings: read-out: GI
[11] = system: MDA-MB-468; test: Antitumor activity against human MDA-MB-468 cells assessed as cell growth inhibition at 10 uM incubated for 48 hrs by sulforhodamine B assay; type: functional; settings: read-out: GI
[12] = system: LOX IMVI; test: Antitumor activity against human LOX IMVI cells assessed as cell growth inhibition at 10 uM incubated for 48 hrs by sulforhodamine B assay; type: functional; settings: read-out: GI
[13] = system: SNB-19; test: Antitumor activity against human SNB-19 cells assessed as cell growth inhibition at 10 uM incubated for 48 hrs by sulforhodamine B assay; type: functional; settings: read-out: GI
[14] = system: U-251; test: Antitumor activity against human U251 cells assessed as cell growth inhibition at 10 uM incubated for 48 hrs by sulforhodamine B assay; type: functional; settings: read-out: GI
[15] = system: IGROV-1; test: Antitumor activity against human IGROV1 cells assessed as cell growth inhibition at 10 uM incubated for 48 hrs by sulforhodamine B assay; type: functional; settings: read-out: GI
[16] = system: HT-29; test: Antitumor activity against human HT-29 cells assessed as cell growth inhibition at 10 uM incubated for 48 hrs by sulforhodamine B assay; type: functional; settings: read-out: GI
[17] = system: Malme-3M; test: Antitumor activity against human MALME-3M cells assessed as cell growth inhibition at 10 uM incubated for 48 hrs by sulforhodamine B assay; type: functional; settings: read-out: GI
[18] = system: SR; test: Antitumor activity against human SR cells assessed as cell growth inhibition at 10 uM incubated for 48 hrs by sulforhodamine B assay; type: functional; settings: read-out: GI
[19] = system: SK-OV-3; test: Antitumor activity against human SK-OV-3 cells assessed as cell growth inhibition at 10 uM incubated for 48 hrs by sulforhodamine B assay; type: functional; settings: read-out: GI
[20] = system: A498; test: Antitumor activity against human A498 cells assessed as cell growth inhibition at 10 uM incubated for 48 hrs by sulforhodamine B assay; type: functional; settings: read-out: GI
[21] = system: RPMI-8226; test: Antitumor activity against human RPMI8226 cells assessed as cell growth inhibition at 10 uM incubated for 48 hrs by sulforhodamine B assay; type: functional; settings: read-out: GI
[22] = system: KM12; test: Antitumor activity against human KM12 cells assessed as cell growth inhibition at 10 uM incubated for 48 hrs by sulforhodamine B assay; type: functional; settings: read-out: GI
[23] = system: HL-60(TB); test: Antitumor activity against human HL-60(TB) cells assessed as cell growth inhibition at 10 uM incubated for 48 hrs by sulforhodamine B assay; type: functional; settings: read-out: GI
[24] = system: CCRF-CEM; test: Antitumor activity against human CCRF-CEM cells assessed as cell growth inhibition at 10 uM incubated for 48 hrs by sulforhodamine B assay; type: functional; settings: read-out: GI
[25] = system: M14; test: Antitumor activity against human M14 cells assessed as cell growth inhibition at 10 uM incubated for 48 hrs by sulforhodamine B assay; type: functional; settings: read-out: GI
[26] = system: 786-0; test: Antitumor activity against human 786-0 cells assessed as cell growth inhibition at 10 uM incubated for 48 hrs by sulforhodamine B assay; type: functional; settings: read-out: GI
[27] = system: NCI-H460; test: Antitumor activity against human NCI-H460 assessed as cell growth inhibition at 10 uM incubated for 48 hrs by sulforhodamine B assay; type: functional; settings: read-out: GI
[28] = system: BT-549; test: Antitumor activity against human BT-549 cells assessed as cell growth inhibition at 10 uM incubated for 48 hrs by sulforhodamine B assay; type: functional; settings: read-out: GI
[29] = system: SN12C; test: Antitumor activity against human SN12C cells assessed as cell growth inhibition at 10 uM incubated for 48 hrs by sulforhodamine B assay; type: functional; settings: read-out: GI
[30] = system: HOP-92; test: Antitumor activity against human HOP92 cells assessed as cell growth inhibition at 10 uM incubated for 48 hrs by sulforhodamine B assay; type: functional; settings: read-out: GI
[31] = system: SF-295; test: Antitumor activity against human SF295 cells assessed as cell growth inhibition at 10 uM incubated for 48 hrs by sulforhodamine B assay; type: functional; settings: read-out: GI
[32] = system: MDA-MB-435; test: Antitumor activity against human MDA-MB-435 cells assessed as cell growth inhibition at 10 uM incubated for 48 hrs by sulforhodamine B assay; type: functional; settings: read-out: GI
[33] = system: EKVX; test: Antitumor activity against human EKVX cells assessed as cell growth inhibition at 10 uM incubated for 48 hrs by sulforhodamine B assay; type: functional; settings: read-out: GI
[34] = system: K562; test: Antitumor activity against human K562 cells assessed as cell growth inhibition at 10 uM incubated for 48 hrs by sulforhodamine B assay; type: functional; settings: read-out: GI
[35] = system: NCI-H522; test: Antitumor activity against human NCI-H522 cells assessed as cell growth inhibition at 10 uM incubated for 48 hrs by sulforhodamine B assay; type: functional; settings: read-out: GI
[36] = system: SW-620; test: Antitumor activity against human SW620 cells assessed as cell growth inhibition at 10 uM incubated for 48 hrs by sulforhodamine B assay; settings: SW-620, 48 h, read-out: GI
[37] = system: OVCAR-8; test: Antitumor activity against human OVCAR-8 cells assessed as cell growth inhibition at 10 uM incubated for 48 hrs by sulforhodamine B assay; type: functional; settings: read-out: GI
[38] = system: ACHN; test: Antitumor activity against human ACHN cells assessed as cell growth inhibition at 10 uM incubated for 48 hrs by sulforhodamine B assay; type: functional; settings: read-out: GI
[39] = system: MDA-MB-231; test: Antitumor activity against human MDA-MB-231/ATCC cells assessed as cell growth inhibition at 10 uM incubated for 48 hrs by sulforhodamine B assay; type: functional; settings: read-out: GI
[40] = system: MOLT-4; test: Antitumor activity against human MOLT4 cells assessed as cell growth inhibition at 10 uM incubated for 48 hrs by sulforhodamine B assay; type: functional; settings: read-out: GI
[41] = system: NCI-H23; test: Antitumor activity against human NCI-H23 cells assessed as cell growth inhibition at 10 uM incubated for 48 hrs by sulforhodamine B assay; type: functional; settings: read-out: GI
[42] = system: MCF7; test: Antitumor activity against human MCF7 cells assessed as cell growth inhibition at 10 uM incubated for 48 hrs by sulforhodamine B assay; type: functional; settings: read-out: GI
[43] = system: HCC 2998; test: Antitumor activity against human HCC2998 cells assessed as cell growth inhibition at 10 uM incubated for 48 hrs by sulforhodamine B assay; type: functional; settings: read-out: GI
[44] = system: COLO 205; test: Antitumor activity against human COLO205 cells assessed as cell growth inhibition at 10 uM incubated for 48 hrs by sulforhodamine B assay; type: functional; settings: read-out: GI
[45] = system: HCT-116; test: Antitumor activity against human HCT116 cells assessed as cell growth inhibition at 10 uM incubated for 48 hrs by sulforhodamine B assay; type: functional; settings: read-out: GI
[46] = system: SNB-75; test: Antitumor activity against human SNB-75 cells assessed as cell growth inhibition at 10 uM incubated for 48 hrs by sulforhodamine B assay; type: functional; settings: read-out: GI
[47] = system: UO-31; test: Antitumor activity against human UO-31 cells assessed as cell growth inhibition at 10 uM incubated for 48 hrs by sulforhodamine B assay; type: functional; settings: read-out: GI
[48] = system: SF-268; test: Antitumor activity against human SF268 cells assessed as cell growth inhibition at 10 uM incubated for 48 hrs by sulforhodamine B assay; type: functional; settings: read-out: GI

## CCN(CC)c1ccc(-c2nc3c4ccccc4c4ccccc4c3[nH]2)c(O)c1
[1]
  inhibition of growth at 10 µM: < 10%
[2]
  inhibition of growth at 10 µM: 20.1%
[3]
  inhibition of growth at 10 µM: 13.8%
[4]
  inhibition of growth at 10 µM: < 10%
[5]
  inhibition of growth at 10 µM: < 10%
[6]
  inhibition of growth at 10 µM: < 10%
[7]
  inhibition of growth at 10 µM: < 10%
[8]
  inhibition of growth at 10 µM: < 10%
[9]
  inhibition of growth at 10 µM: < 10%
[10]
  inhibition of growth at 10 µM: < 10%
[11]
  inhibition of growth at 10 µM: < 10%
[12]
  inhibition of growth at 10 µM: 11.7%
[13]
  inhibition of growth at 10 µM: < 10%
[14]
  inhibition of growth at 10 µM: < 10%
[15]
  inhibition of growth at 10 µM: < 10%
[16]
  inhibition of growth at 10 µM: < 10%
[17]
  inhibition of growth at 10 µM: < 10%
[18]
  inhibition of growth at 10 µM: 15.8%
[19]
  inhibition of growth at 10 µM: 10.1%
[20]
  inhibition of growth at 10 µM: < 10%
[21]
  inhibition of growth at 10 µM: < 10%
[22]
  inhibition of growth at 10 µM: < 10%
[23]
  inhibition of growth at 10 µM: < 10%
[24]
  inhibition of growth at 10 µM: < 10%
[25]
  inhibition of growth at 10 µM: < 10%
[26]
  inhibition of growth at 10 µM: < 10%
[27]
  inhibition of growth at 10 µM: < 10%
[28]
  inhibition of growth at 10 µM: < 10%
[29]
  inhibition of growth at 10 µM: < 10%
[30]
  inhibition of growth at 10 µM: 24.2%
[31]
  inhibition of growth at 10 µM: < 10%
[32]
  inhibition of growth at 10 µM: < 10%
[33]
  inhibition of growth at 10 µM: 18.2%
[34]
  inhibition of growth at 10 µM: 20.5%
[35]
  inhibition of growth at 10 µM: 10.4%
[36]
  inhibition of growth at 10 µM: < 10%
[37]
  inhibition of growth at 10 µM: < 10%
[38]
  inhibition of growth at 10 µM: < 10%
[39]
  inhibition of growth at 10 µM: 19.4%
[40]
  inhibition of growth at 10 µM: < 10%
[41]
  inhibition of growth at 10 µM: < 10%
[42]
  inhibition of growth at 10 µM: 23.8%
[43]
  inhibition of growth at 10 µM: < 10%
[44]
  inhibition of growth at 10 µM: < 10%
[45]
  inhibition of growth at 10 µM: < 10%
[46]
  inhibition of growth at 10 µM: < 10%
[47]
  inhibition of growth at 10 µM: 24.4%
[48]
  inhibition of growth at 10 µM: < 10%
